Source: the NIST ThermoML archive (doi:10.1021/je700261b)

Test: xn = mol fraction of the nth substance listed
Settings: Liquid

CCCCO [butan-1-ol] + O=C=O
Settings	mass density [kg/m3]
313.1 K, 1008 kPa, x2 = 0.0251	798.08
313.1 K, 2011 kPa, x2 = 0.0251	798.9
313.1 K, 3006 kPa, x2 = 0.0251	799.7
313.1 K, 4012 kPa, x2 = 0.0251	800.54
313.1 K, 5008 kPa, x2 = 0.0251	801.32
313.1 K, 6013 kPa, x2 = 0.0251	802.14
313.1 K, 7004 kPa, x2 = 0.0251	802.94
313.1 K, 8023 kPa, x2 = 0.0251	803.75
313.1 K, 9037 kPa, x2 = 0.0251	804.53
313.1 K, 9990 kPa, x2 = 0.9698	711.97
313.1 K, 10005 kPa, x2 = 0.0251	805.29
313.1 K, 11011 kPa, x2 = 0.0251	806.08
313.1 K, 11014 kPa, x2 = 0.9698	740.16
313.1 K, 12018 kPa, x2 = 0.0251	806.83
313.1 K, 12040 kPa, x2 = 0.9698	761.46
313.1 K, 12987 kPa, x2 = 0.9698	777.57
313.1 K, 13003 kPa, x2 = 0.0251	807.56
313.1 K, 14007 kPa, x2 = 0.0251	808.31
313.1 K, 14020 kPa, x2 = 0.9698	792.52
313.1 K, 15009 kPa, x2 = 0.0251	809.03
313.1 K, 15028 kPa, x2 = 0.9698	805.22
313.1 K, 16004 kPa, x2 = 0.0251	809.77
313.1 K, 16029 kPa, x2 = 0.9698	816.46
313.1 K, 17000 kPa, x2 = 0.9698	826.34
313.1 K, 17005 kPa, x2 = 0.0251	810.49
313.1 K, 18019 kPa, x2 = 0.0251	811.19
313.1 K, 18024 kPa, x2 = 0.9698	835.89
313.1 K, 19019 kPa, x2 = 0.0251	811.89
313.1 K, 19027 kPa, x2 = 0.9698	844.46
313.1 K, 20020 kPa, x2 = 0.0251	812.59
313.1 K, 20021 kPa, x2 = 0.9698	852.41
313.1 K, 21013 kPa, x2 = 0.9698	859.87
313.1 K, 21027 kPa, x2 = 0.0251	813.29
313.1 K, 22005 kPa, x2 = 0.0251	813.97
313.1 K, 22032 kPa, x2 = 0.9698	867.02
313.1 K, 23006 kPa, x2 = 0.9698	873.5
313.1 K, 23011 kPa, x2 = 0.0251	814.69
313.1 K, 24004 kPa, x2 = 0.0251	815.36
313.1 K, 24011 kPa, x2 = 0.9698	879.83
313.1 K, 25028 kPa, x2 = 0.0251	816.1
313.11 K, 1990 kPa, x2 = 0.0857	802.76
313.11 K, 3001 kPa, x2 = 0.0857	803.63
313.11 K, 4009 kPa, x2 = 0.0857	804.54
313.11 K, 5013 kPa, x2 = 0.0857	805.41
313.11 K, 6014 kPa, x2 = 0.0857	806.27
313.11 K, 7009 kPa, x2 = 0.0857	807.15
313.11 K, 8011 kPa, x2 = 0.0857	807.98
313.11 K, 9009 kPa, x2 = 0.0857	808.79
313.11 K, 10011 kPa, x2 = 0.0857	809.65
313.11 K, 10994 kPa, x2 = 0.0857	810.46
313.11 K, 12007 kPa, x2 = 0.0857	811.26
313.11 K, 13022 kPa, x2 = 0.0857	812.06
313.11 K, 13999 kPa, x2 = 0.0857	812.83
313.11 K, 15014 kPa, x2 = 0.0857	813.63
313.11 K, 16013 kPa, x2 = 0.0857	814.38
313.11 K, 16994 kPa, x2 = 0.0857	815.12
313.11 K, 18005 kPa, x2 = 0.0857	815.89
313.11 K, 19008 kPa, x2 = 0.0857	816.61
313.11 K, 20010 kPa, x2 = 0.0857	817.4
313.11 K, 20990 kPa, x2 = 0.0857	818.09
313.11 K, 22028 kPa, x2 = 0.0857	818.85
313.11 K, 22900 kPa, x2 = 0.0857	819.47
313.11 K, 23996 kPa, x2 = 0.0857	820.3
313.11 K, 25047 kPa, x2 = 0.0857	821.11
313.15 K, 9101 kPa, x2 = 0.4972	830.36
313.15 K, 10085 kPa, x2 = 0.4972	831.83
313.15 K, 11056 kPa, x2 = 0.4972	833.28
313.15 K, 12062 kPa, x2 = 0.4972	834.75
313.15 K, 13043 kPa, x2 = 0.4972	836.14
313.15 K, 14050 kPa, x2 = 0.4972	837.54
313.15 K, 15053 kPa, x2 = 0.4972	838.9
313.15 K, 16037 kPa, x2 = 0.4972	840.22
313.15 K, 17055 kPa, x2 = 0.4972	841.56
313.15 K, 18037 kPa, x2 = 0.4972	842.85
313.15 K, 19023 kPa, x2 = 0.4972	844.11
313.15 K, 20041 kPa, x2 = 0.4972	845.39
313.15 K, 21003 kPa, x2 = 0.4972	846.61
313.15 K, 22068 kPa, x2 = 0.4972	847.91
313.15 K, 23079 kPa, x2 = 0.4972	849.14
313.15 K, 24016 kPa, x2 = 0.4972	850.27
313.15 K, 25033 kPa, x2 = 0.4972	851.48
313.16 K, 10073 kPa, x2 = 0.5965	836.7
313.16 K, 10087 kPa, x2 = 0.8663	805.12
313.16 K, 11059 kPa, x2 = 0.5965	838.66
313.16 K, 11082 kPa, x2 = 0.8663	813.86
313.16 K, 12061 kPa, x2 = 0.8663	821.6
313.16 K, 12075 kPa, x2 = 0.5965	840.6
313.16 K, 13043 kPa, x2 = 0.8663	828.71
313.16 K, 13069 kPa, x2 = 0.5965	842.49
313.16 K, 14076 kPa, x2 = 0.8663	835.52
313.16 K, 14098 kPa, x2 = 0.5965	844.39
313.16 K, 15059 kPa, x2 = 0.5965	846.11
313.16 K, 15061 kPa, x2 = 0.8663	841.57
313.16 K, 16037 kPa, x2 = 0.5965	847.81
313.16 K, 16043 kPa, x2 = 0.8663	847.15
313.16 K, 17032 kPa, x2 = 0.5965	849.52
313.16 K, 17052 kPa, x2 = 0.8663	852.59
313.16 K, 18048 kPa, x2 = 0.5965	851.21
313.16 K, 18056 kPa, x2 = 0.8663	857.69
313.16 K, 19039 kPa, x2 = 0.8663	862.42
313.16 K, 19055 kPa, x2 = 0.5965	852.88
313.16 K, 20027 kPa, x2 = 0.8663	866.99
313.16 K, 20044 kPa, x2 = 0.5965	854.46
313.16 K, 21042 kPa, x2 = 0.5965	856.04
313.16 K, 21068 kPa, x2 = 0.8663	871.52
313.16 K, 22034 kPa, x2 = 0.8663	875.6
313.16 K, 22053 kPa, x2 = 0.5965	857.62
313.16 K, 23031 kPa, x2 = 0.5965	859.12
313.16 K, 23061 kPa, x2 = 0.8663	879.74
313.16 K, 24038 kPa, x2 = 0.5965	860.62
313.16 K, 24054 kPa, x2 = 0.8663	883.63
313.16 K, 25015 kPa, x2 = 0.8663	887.21
313.16 K, 25036 kPa, x2 = 0.5965	862.12
323.05 K, 1017 kPa, x2 = 0.0251	789.88
323.05 K, 2015 kPa, x2 = 0.0251	790.73
323.05 K, 3003 kPa, x2 = 0.0251	791.59
323.05 K, 4007 kPa, x2 = 0.0251	792.48
323.05 K, 5026 kPa, x2 = 0.0251	793.33
323.05 K, 5975 kPa, x2 = 0.0251	794.14
323.05 K, 7085 kPa, x2 = 0.0251	795.08
323.05 K, 7991 kPa, x2 = 0.0251	795.85
323.05 K, 9003 kPa, x2 = 0.0251	796.68
323.05 K, 10032 kPa, x2 = 0.0251	797.56
323.05 K, 10996 kPa, x2 = 0.0251	798.32
323.05 K, 11029 kPa, x2 = 0.9698	630.03
323.05 K, 12005 kPa, x2 = 0.9698	671.01
323.05 K, 12028 kPa, x2 = 0.0251	799.15
323.05 K, 12996 kPa, x2 = 0.9698	700.08
323.05 K, 13030 kPa, x2 = 0.0251	799.93
323.05 K, 14024 kPa, x2 = 0.9698	723.36
323.05 K, 14030 kPa, x2 = 0.0251	800.72
323.05 K, 15018 kPa, x2 = 0.0251	801.45
323.05 K, 15024 kPa, x2 = 0.9698	741.89
323.05 K, 16009 kPa, x2 = 0.9698	757.4
323.05 K, 16017 kPa, x2 = 0.0251	802.24
323.05 K, 17001 kPa, x2 = 0.9698	771.14
323.05 K, 17014 kPa, x2 = 0.0251	802.97
323.05 K, 18016 kPa, x2 = 0.9698	783.62
323.05 K, 18025 kPa, x2 = 0.0251	803.71
323.05 K, 19020 kPa, x2 = 0.9698	794.82
323.05 K, 19034 kPa, x2 = 0.0251	804.49
323.05 K, 20048 kPa, x2 = 0.9698	805.21
323.05 K, 20052 kPa, x2 = 0.0251	805.21
323.05 K, 21014 kPa, x2 = 0.0251	805.95
323.05 K, 21055 kPa, x2 = 0.9698	814.54
323.05 K, 22017 kPa, x2 = 0.9698	822.92
323.05 K, 22027 kPa, x2 = 0.0251	806.68
323.05 K, 23002 kPa, x2 = 0.0251	807.38
323.05 K, 23087 kPa, x2 = 0.9698	831.58
323.05 K, 24035 kPa, x2 = 0.0251	808.13
323.05 K, 24055 kPa, x2 = 0.9698	838.92
323.05 K, 25023 kPa, x2 = 0.0251	808.84
323.07 K, 1981 kPa, x2 = 0.0857	794.04
323.07 K, 3013 kPa, x2 = 0.0857	795.05
323.07 K, 4009 kPa, x2 = 0.0857	795.99
323.07 K, 5021 kPa, x2 = 0.0857	796.91
323.07 K, 6010 kPa, x2 = 0.0857	797.83
323.07 K, 6995 kPa, x2 = 0.0857	798.74
323.07 K, 7985 kPa, x2 = 0.0857	799.59
323.07 K, 9047 kPa, x2 = 0.0857	800.55
323.07 K, 10028 kPa, x2 = 0.0857	801.4
323.07 K, 11003 kPa, x2 = 0.0857	802.22
323.07 K, 12005 kPa, x2 = 0.0857	803.07
323.07 K, 12995 kPa, x2 = 0.0857	803.91
323.07 K, 14273 kPa, x2 = 0.0857	805.01
323.07 K, 15019 kPa, x2 = 0.0857	805.58
323.07 K, 15998 kPa, x2 = 0.0857	806.41
